By IC50 is commonly meant the point on the concentration scale where inhibition reaches its midpoint. Higher therefore signals a need for much substance.

In ChEMBL document CHEMBL2010690, “Identification and evaluation of apoptotic compounds from Garcinia oligantha” (Bioorg Med Chem Lett, 2012) one finds IC50 and Activity data, which are given here for five compounds.

What all share (assay type): functional, cell-based
The subject of assay [1] is HeLa. Nature of the assay: Cytotoxicity against human HeLa cells after 72 hrs by MTT assay. Background: Formazan colour is commonly taken as a measure of viable cells.
The test system of assay [2] is HeLa C3. Nature of the assay: Induction of apoptosis in human HeLaC3 cells assessed as caspase-3 activation at 10 uM after 72 hrs by YFP/CFP-based FRET analysis.
In assay [3] the test system is HeLa C3. Nature of the assay: Induction of apoptosis in human HeLaC3 cells assessed as caspase-3 activation at 5 uM after 72 hrs by YFP/CFP-based FRET analysis.
The subject of assay [4] is HeLa. The assay is described as follows: Induction of apoptosis in human HeLa cells assessed as increase in PARP cleavage at 5 uM after 48 hrs by Western blotting analysis. For orientation: Immunoblotting shows a protein as a band on a membrane.
The subject of assay [5] is HeLa. Nature of the assay: Induction of apoptosis in human HeLa cells assessed as increase in PARP cleavage at 5 uM after 24 hrs by Western blotting analysis.
Assay [6] deals with HeLa C3. The assay is described as follows: Induction of apoptosis in human HeLaC3 cells assessed as caspase-3 activation at 1 uM after 72 hrs by YFP/CFP-based FRET analysis.
Assay [7] has as its system HeLa C3. Nature of the assay: Induction of apoptosis in human HeLaC3 cells assessed as caspase-3 activation at 2.5 uM after 72 hrs by YFP/CFP-based FRET analysis.
Assay [8] has as its system HeLa. The assay is described as follows: Induction of apoptosis in human HeLa cells assessed as increase in PARP cleavage at 10 uM after 24 hrs by Western blotting analysis.
For assay [9], the system named is HeLa. Nature of the assay: Induction of apoptosis in human HeLa cells assessed as increase in PARP cleavage at 10 uM after 48 hrs by Western blotting analysis.

Activity calls are given as the source filed them. The calls are words filed in the database; no cut-off is given here.

On to `CO[C@@]12C=C3C(=O)c4c(O)cc(O)c(CC=C(C)C)c4O[C@@]34[C@@H](C1)C(C)(C)O[C@@]4(CC=C(C)C)C2=O` [GAUDICHAUDIONE H], for which the midpoint of inhibition in the assay on HeLa [1], the IC50, lay at 900 nM. The outcome in the assay on HeLa C3 [2], in the assay on HeLa C3 [3], with HeLa [4], with HeLa [5] and with HeLa C3 [7] was Active. The outcome in the assay with HeLa C3 [6] was inactive.
For `CC(C)=CCC1(CC=C(C)C)C(=O)C(O)=C(O)c2oc3cc4c(c(O)c3c(=O)c21)C=CC(C)(C)O4` [OLIGANTHIN A], inhibition with HeLa [1] was half-maximal at 1580 nM (IC50). The outcome with HeLa C3 [2], in the assay with HeLa C3 [3], in the assay on HeLa [4], in the assay on HeLa [5] and with HeLa C3 [7] was Active. In addition, the outcome in the assay with HeLa C3 [6] was inactive.
`CC(C)=CCC1(O)C(=O)c2oc3cc4c(c(O)c3c(=O)c2C(CC=C(C)C)(CC=C(C)C)C1=O)C=CC(C)(C)O4` (stereo unspecified) [OLIGANTHIN B] showed an IC50 in the assay on HeLa [1] of 1520 nM. Further, the result in the assay on HeLa [8], with HeLa C3 [2], in the assay with HeLa [9] and in the assay on HeLa C3 [3] was Active. The result with HeLa C3 [6] and in the assay with HeLa C3 [7] was inactive.
With `CC(C)=CCc1c(O)cc2oc3c(c(=O)c2c1O)C(CC=C(C)C)(CC=C(C)C)C(=O)C(O)(CC=C(C)C)C3=O` (stereo unspecified) [OLIGANTHIN C], the IC50 in the assay with HeLa [1] amounted to 4150 nM. For the same compound, in the assay with HeLa C3 [2], the outcome was Active. For the same compound, the result with HeLa C3 [3], in the assay with HeLa C3 [6] and in the assay with HeLa C3 [7] was inactive.
The compound `CC(=O)CC1(O)C(=O)c2oc3cc4c(c(O)c3c(=O)c2C(CC=C(C)C)(CC=C(C)C)C1=O)C=CC(C)(C)O4` (stereo unspecified) [OLIGANTHIN D] yielded an IC50 in the assay with HeLa [1] of 7820 nM. In the assay with HeLa C3 [2], the outcome was Active. For the same compound, the outcome with HeLa C3 [3], in the assay with HeLa C3 [6] and in the assay on HeLa C3 [7] was inactive.
